Patent US9540327B2, “Bis-quaternary ammonium salts and methods for modulating neuronal nicotinic acetylcholine receptors” (University of Kentucky Research Foundation, priority 2006, dated 2017)
Where two headings read alike, the source gives them in different places.

Legend:
[1] = target: T1, Rat Striatal Nicotinic Receptors ([^3H]NIC binding sites; α4β2) (Rattus norvegicus, UniProt P09483+P12390); assay: Inhibition of [^3H]nicotine binding to rat brain membranes
T1 construct: Whole brain, excluding cortex and cerebellum, was homogenized in 20 vol of ice-cold buffer; from tissue; host or cells: rat brain membranes (whole brain excluding cortex and cerebellum)
T1 sequence (P09483 31-630): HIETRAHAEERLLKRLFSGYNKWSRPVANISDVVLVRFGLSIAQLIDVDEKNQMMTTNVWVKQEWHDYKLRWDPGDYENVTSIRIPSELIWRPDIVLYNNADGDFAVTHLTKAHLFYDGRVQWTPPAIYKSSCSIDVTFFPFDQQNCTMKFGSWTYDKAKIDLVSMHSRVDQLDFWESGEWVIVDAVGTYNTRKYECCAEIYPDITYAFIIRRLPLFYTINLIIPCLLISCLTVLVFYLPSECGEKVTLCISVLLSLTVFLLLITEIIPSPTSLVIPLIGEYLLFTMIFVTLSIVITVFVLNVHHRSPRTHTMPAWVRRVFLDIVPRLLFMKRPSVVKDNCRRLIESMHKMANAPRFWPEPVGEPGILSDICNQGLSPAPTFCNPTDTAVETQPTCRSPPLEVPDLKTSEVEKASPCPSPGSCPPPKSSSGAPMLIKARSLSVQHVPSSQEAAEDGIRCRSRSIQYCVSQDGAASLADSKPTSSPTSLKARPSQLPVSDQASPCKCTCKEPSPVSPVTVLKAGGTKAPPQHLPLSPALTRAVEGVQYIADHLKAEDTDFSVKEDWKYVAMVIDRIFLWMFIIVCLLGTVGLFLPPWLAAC
T1 sequence (P12390 25-500): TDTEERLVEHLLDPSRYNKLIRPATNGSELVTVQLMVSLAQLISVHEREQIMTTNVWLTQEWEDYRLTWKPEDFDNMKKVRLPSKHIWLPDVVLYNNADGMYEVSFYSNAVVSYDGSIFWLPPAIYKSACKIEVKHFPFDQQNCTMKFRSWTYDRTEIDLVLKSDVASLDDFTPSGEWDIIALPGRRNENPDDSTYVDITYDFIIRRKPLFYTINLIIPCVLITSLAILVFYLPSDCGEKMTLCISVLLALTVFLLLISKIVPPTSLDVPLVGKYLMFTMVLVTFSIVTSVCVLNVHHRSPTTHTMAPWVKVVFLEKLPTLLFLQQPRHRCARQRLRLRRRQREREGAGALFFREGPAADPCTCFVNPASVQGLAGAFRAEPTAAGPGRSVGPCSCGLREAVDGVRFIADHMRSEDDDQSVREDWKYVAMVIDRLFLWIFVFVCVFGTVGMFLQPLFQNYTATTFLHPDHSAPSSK
Experimental: (§1) Whole brain, excluding cortex and cerebellum, was homogenized in 20 vol of ice-cold buffer, containing (in mM): 2 HEPES, 11.8 NaCl, 0.48 KCl, 0.25 CaCl2 and 0.12 MgSO4, pH 7.5. Homogenate was centrifuged (25,000 g, 15 min, 4° C.). Pellets were resuspended in 20 vol buffer and incubated at 37° C., for 10 min, cooled to 4° C. and centrifuged (25,000 g, 15 min, 4° C.). Pellets were resuspended and centrifuged using the same conditions. Final pellets were stored in assay buffer, containing (in mM): 20 HEPES, 118 NaCl, 4.8 KCl, 2.5 CaCl2, and 1.2 MgSO4, pH 7.5 at −70° C. Upon use, final pellets were resuspended in ˜20 vol assay buffer. Samples (250 μl) contained 100-140 μg of membrane protein, 3 nM [^3H]nicotine or 3 nM [^3H]methyllycaconitine, and analog (100 nM) in assay buffer containing 50 mM Tris. Control was in the absence of analog. In [^3H]nicotine and [^3H]methyllycaconitine binding assays, nonspecific binding was determined in the presence of 10 μM cytisine and 10 μM nicotine, respectively. Incubations proceeded for 60 min at room temperature using 96-well plates and were terminated by harvesting on Unifilter-96 GF/B filter plates presoaked in 0.5% polyethylenimine, using a Packard FilterMate harvester. After washing 5 times with 350 μl ice-cold assay buffer, filter plates were dried (60 min, […]), bottom-sealed, and filled with Packard's MicroScint 20 cocktail (40 μl/well). After 60 min, filter plates were top-sealed, and radioactivity determined using a Packard TopCount. Protein concentrations were determined using the Bradford dye-binding procedure bovine serum albumin as the standard.
(§2) […] Specific binding in the [^3H]NIC binding assay is calculated as the difference between the total binding of 3 nM [^3H]NIC and nonspecific binding in the presence of 10 μM cytisine. Specific binding for the [^3H]MLA binding assay is calculated as the difference between the total binding of 3 nM [^3H]MLA to the receptors alone and its nonspecific binding in the presence of 10 μM nicotine. Analog-induced inhibition of nicotine-evoked [^3H]DA release is calculated as a percent of that in the absence of the bis-quaternary ammonium analog.

[2] = target: T2, Rat Striatal Nicotinic Receptors ([^3H]MLA binding sites; α7) (Rattus norvegicus, UniProt Q05941); assay: Inhibition of [^3H]methyllycaconitine binding to rat brain membranes
T2 construct: Whole brain, excluding cortex and cerebellum, was homogenized in 20 vol of ice-cold buffer; from tissue; host or cells: rat brain membranes (whole brain excluding cortex and cerebellum)
T2 sequence (Q05941 23-502): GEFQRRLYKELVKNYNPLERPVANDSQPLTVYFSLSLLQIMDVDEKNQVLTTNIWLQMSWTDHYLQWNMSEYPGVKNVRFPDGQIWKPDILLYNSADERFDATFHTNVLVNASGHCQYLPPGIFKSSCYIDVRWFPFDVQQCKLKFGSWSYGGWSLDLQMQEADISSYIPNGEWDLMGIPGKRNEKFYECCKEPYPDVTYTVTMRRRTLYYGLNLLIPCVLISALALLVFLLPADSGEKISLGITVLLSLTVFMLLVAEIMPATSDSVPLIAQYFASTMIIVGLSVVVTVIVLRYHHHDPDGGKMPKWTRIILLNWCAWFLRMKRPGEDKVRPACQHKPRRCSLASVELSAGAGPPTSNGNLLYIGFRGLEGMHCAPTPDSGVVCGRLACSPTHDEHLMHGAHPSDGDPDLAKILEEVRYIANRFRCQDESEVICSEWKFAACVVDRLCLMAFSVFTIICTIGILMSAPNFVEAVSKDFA
Experimental: as §1, §2

[3] = tested on: Nicotine-evoked [^3H]Dopamine Release from Superfused Rat Striatal Slices; assay: Inhibition of nicotine-evoked [^3H]dopamine overflow from superfused rat striatal slices; assay type: cell-based; settings: nicotine 10 μM; for inhibition at 0.1 µM: analog 100 nM, superfused rat striatal slices, read-out: Inhibition Nicotine-evoked [^3H]DA release (% inhibition at 100 nM)
Experimental: The [^3H]dopamine overflow assay using superfused rat striatal slices preloaded with [^3H]dopamine was used to determine the ability of a probe concentration (100 nM) of each bis-quaternary ammonium analog to inhibited nicotine-evoked [^3H]dopamine overflow. Briefly, coronal slices of rat striata (500 μm, 6-8 mg) were obtained using a Mcllwain tissue chopper. Slices were incubated for 30 min in Krebs' buffer (in mM: 118 NaCl, 4.7 KCl, 1.2 MgCl2, 1.0 NaH2PO4, 1.3 CaCl2, 11.1 α-D-glucose, 25 NaHCO3, 0.11 L-ascorbic acid and 0.004 ethylenediaminetetraacetic acid (EDTA), pH 7.4, saturated with 95% O2/5% CO2) at 34° C. in a metabolic shaker. Slices were then incubated for an additional 30 min in fresh buffer containing 0.1 μM [^3H]dopamine. After rinsing, each slice was transferred to each one of 20 superfusion chambers, maintained at 34° C. and superfused (0.6 ml/min) with oxygenated Krebs' buffer in a Brandel Suprafusion 2500 (Biomedical Research and Development Laboratories, Inc., Gaithersburg, Md.). The buffer contained both nomifensine (10 μM), a dopamine uptake blocker, and pargyline (10 μM), a monoamine oxidase inhibitor, ensuring that [^3H]overflow primarily represented [^3H]dopamine, rather than [^3H]metabolites. Following superfusion for 60 min, two 4-min samples (2.4 ml/sample) were collected to determine basal [^3H]outflow. After collection of the second basal sample, slices from an individual rat were superfused for 40 min in the absence (0 nM; control) or presence of each bis-quaternary ammonium analog (100 nM) to determine the intrinsic activity of the analog, i.e., ability of the analog to evoke [^3H]overflow. Following 40 min of superfusion in the absence or presence of analog, nicotine (10 μM) was added to the superfusion buffer and samples were collected for an additional 40 min to determine the ability of the analog to inhibit nicotine-evoked [^3H]dopamine overflow. At least one striatal slice in each experiment was superfused for 40 min in the absence of analog, followed by superfusion with 10 μM nicotine to determine nicotine-evoked [^3H]dopamine overflow in the absence of analog (nicotine control). After collection of the superfusate samples, the slices were retrieved from the chambers and solubilized using 1 ml of TS-2 tissue solubilizer. Scintillation cocktail (4 ml) was added to the superfusate samples. The pH and volume of the solubilized tissue samples were adjusted to that of the superfusate samples. Radioactivity in the superfusate and tissue samples was determined by liquid scintillation spectroscopy (Packard model B 1600 TR Scintillation Counter, Downer's Grove, Ill.).
For individual analogs, a complete concentration response was determined using the following methodology. Rat striatal slices (500 μm thickness, 6-8 mg wet weight) were incubated for 30 minutes in Krebs buffer (118 mM NaCl, 4.7 mM KCl, 1.2 mM MgCl2, 1.0 mM NaH2PO4, 1.3 mM CaCl2, 11.1 mM glucose, 25 mM NaHCO3, 0.11 mM L-ascorbic acid, and 0.004 mM disodium EDTA; pH 7.4, and saturated with 95% O2/5% CO2) in a metabolic shaker at 34° C. Slices were rinsed with 15 mL of fresh buffer and incubated for an additional 30 minutes in fresh buffer containing 0.1 μM [^3H]dopamine (DA; 6 slices/3 mL). Subsequently, slices were rinsed with 15 mL of fresh buffer and transferred to a glass superfusion chamber. Slices were superfused (1.0 mL/min) for 60 minutes with Krebs buffer containing nomifensine (10 μM) and pargyline (10 μM) and maintained at 34° C., pH 7.4, with continual aeration (95% O2/5% CO2). Three 5-minute samples (5 mL each) were collected to determine basal outflow of [^3H]DA. The bis-quaternary analogs were added to the superfusion buffer after the collection of the third sample and remained in the buffer until 12 consecutive five minute samples were collected. Subsequently, S-(−)-nicotine (10 μM) was added to the buffer and an additional 12 consecutive five minute samples were collected. […]

[4] = 3 nM [^3H]nicotine, nonspecific binding with 10 μM cytisine, rat brain membranes, read-out: Inhibition of [^3H]Nicotine binding Ki (μM; M ± SEM)
[5] = 3 nM [^3H]methyllycaconitine, nonspecific binding with 10 μM nicotine, rat brain membranes, read-out: Inhibition of [^3H]MLA Binding Ki (μM; M ± SEM)

| Compound | Ki [1, 4] [µM] | Ki [2, 5] [µM] | inhibition at 0.1 µM [3] [%] | Ki [1] [µM] | Ki [2] [µM] | concentration dependent inhibition of the effect of nicotine to evoke [^3H]dopamine release (FIG. 1) ([3]; full concentration response, rat striatal slices) |
| --- | --- | --- | --- | --- | --- | --- |
| C[n+]1cccc(CCCc2ccc[n+](C)c2)c1 [GZ-527A] | 8.2 ± 1.78 | > 100 | 32 | – | – | – |
| C[n+]1ccc(CCCc2cc[n+](C)cc2)cc1 [GZ-527B] | – | – | 67 | 7.88 ± 1.68 | > 100 | concentration dependent inhibition |
| C[n+]1ccccc1CCCc1cccc[n+]1C [GZ-528A] | – | – | 49 | 8.17 ± 0.17 | > 100 | – |
| Cc1cc(CCCc2cc(C)c[n+](C)c2)c[n+](C)c1 [GZ-528B] | > 100 | > 100 | 30 | – | – | – |
| Cc1ccc[n+](CCCc2ccc[n+](C)c2)c1 [GZ-529A] | > 100 | > 100 | 43 | – | – | – |
| Cc1cc(C)c[n+](CCCc2ccc[n+](C)c2)c1 [GZ-529B] | – | – | 25 | > 100 | > 100 | – |
| CN1CCC[C@@H]1c1ccc[n+](CCCc2ccc[n+](C)c2)c1 [GZ-530A] | – | – | 43 | 6.62 ± 1.14 | > 100 | – |
| C[n+]1cccc(CCC[n+]2ccccc2)c1 [GZ-530B] | – | – | 9 | 23.4 ± 3.94 | > 100 | – |
